Results published in US10433548B2, “Biocidal compositions comprising iron chelators” (Arch Chemicals, Inc., priority 2012, dated 2019).
≈ marks a conversion by molar mass, not a printed value. Read-outs that look alike come from different tables or passages of the source.

How the values were obtained:
Assay in all cases: Minimum Inhibitory Concentration (MIC) test, 96-well microtiter plate
Assay type in all cases: cell-based
E. coli = settings: Active ZPT alone or plus chelator or chelator + Zn(II); Molar Ratio HBED 10×, 8-HQ 5×, 8-HQ + Zn(II) 1×, 2-HPNO 10×
Protocol: (§1) Activities of antimicrobial compositions of the present invention were tested against a range of typical skin microorganisms in a Minimum Inhibitory Concentration (MIC) test. MICs for the organisms were determined in a standard 96-well microtiter plate assay in Brain Heart Infusion Broth (BHI) for P. acnes; Tryptic Soy Broth (TSB) for the remaining bacteria; Ushijima Broth for M. furfur; Sabouraud Dextrose Broth (SDB) for other fungi. Samples were tested in duplicate on separate plates. For bacteria and fungi plates, samples were serially diluted into double strength media on the microtiter plates. The bacterial or fungal inocula, suspended in sterile deionized water, were then added to the wells in 1:1 ratio to the medium. The final concentration of bacteria in the wells was 5×10^5 CFUs/mL, the final concentration of fungi was 5×10^4 cells or spores/mL. Plates were incubated: anaerobically at 35° C. for 7 days for P. acnes; aerobically at 35° C. for 2 days for the remaining bacteria and aerobically at 35° C. for 7 days for M. furfur; aerobically at 28° C. for 7 days for T. mentagrophytes.

C. pyrenoidosa = tested on: C. pyrenoidosa; design: unit not given here
R. subcapitata = tested on: R. subcapitata; design: unit not given here
T. mentagrophytes = tested on: T. mentagrophytes; design: unit not given here
Protocol: as §1

S. epidermidis = tested on: S. epidermidis; design: unit not given here
Protocol: as §1

P. aeruginosa = tested on: P. aeruginosa; design: unit not given here
Protocol: as §1

C. albicans = tested on: C. albicans; design: unit not given here
Protocol: as §1

B. subtilis = tested on: B. subtilis; design: unit not given here
Protocol: as §1

A. brasiliensis = tested on: A. brasiliensis; design: unit not given here
Protocol: as §1

P. faveolarum = tested on: P. faveolarum; design: unit not given here
Protocol: as §1

M. furfur = tested on: M. furfur; design: unit not given here
Protocol: as §1

A. pullulans = tested on: A. pullulans; design: unit not given here
Protocol: as §1

P. acnes = settings: for MIC: Cutibacterium acnes
Protocol: as §1

E. hirae = tested on: E. hirae; design: unit not given here
Protocol: as §1

S. aureus = tested on: S. aureus; design: unit not given here
Protocol: as §1

[1] = concentration of ZPT, ZPT alone or with potentiator, Molar Eq (Pot:ZPT) 10:1, 8-HQ-Zn 1:1
[2] = Active ZPT alone or plus chelator or chelator + Zn(II), Molar Ratio HBED 10×, 8-HQ 5×, 8-HQ + Zn(II) 1×, 2-HPNO 10×
[3] = concentration of BBIT, BBIT alone or with potentiator, Molar Eq (Pot:BBIT) 10:1
[4] = concentration of BIT, BIT alone or with potentiator, Molar Eq (Pot:BIT) 10:1
[5] = concentration of Propiconazole, alone or with potentiator, Molar Eq (Pot:PROP) 10:1
[6] = concentration of IPBC, IPBC alone or with potentiator, Molar Eq (Pot:IPBC) 10:1

Compound	MIC C. pyrenoidsa (C. pyrenoidosa; [1])	MIC R. subcapitata (R. subcapitata; [1])	MIC T. mentagrophytes (T. mentagrophytes; [1])	MIC S. epidermidis (S. epidermidis; [1])	MIC P. aeruginosa (P. aeruginosa; [1])	MIC C. albicans (C. albicans; [1])	MIC B. subtilis (B. subtilis; [1])	MIC A. brasiliensis (A. brasiliensis; [1])	MIC P. faveolarum (P. faveolarum; [1])	MIC M. furfur (M. furfur; [1])	MIC C. pyrenoidsa (C. pyrenoidosa; [3])	MIC R. subcapitata (R. subcapitata; [3])	MIC P. aeruginosa (P. aeruginosa; [3])	MIC C. pyrenoidsa (C. pyrenoidosa; [4])	MIC R. subcapitata (R. subcapitata; [4])	MIC P. aeruginosa (P. aeruginosa; [4])	MIC B. subtilis (B. subtilis; [4])	MIC A. brasiliensis (A. brasiliensis; [4])	MIC P. faveolarum (P. faveolarum; [4])	MIC A. pullulans (A. pullulans; [4])	also measured
Oc1cccc2cccnc12.[Zn] [8-HQ-Zn, 8-hydroxyquinoline zinc salt]	0.73	1.95	3.91	1.95	31.25	7.81	0.98	15.63	0.24	1.95	–	–	–	–	–	–	–	–	–	–	MIC E. Coli (E. coli): 7.81; MIC T. mentagrophytes (T. mentagrophytes; [2]): 3.91; MIC S. epidermidis (S. epidermidis; [2]): 1.95; MIC P. aeruginosa (P. aeruginosa; [2]): 31.5; MIC M. furfur (M. furfur; [2]): 1.95
CCCCn1sc2ccccc2c1=O [BBIT, butylbenzisothiazolinone]	–	–	–	–	–	–	–	–	–	–	1.25-2.5	1.25-15	80.00	–	–	–	–	–	–	–	MIC B. subtilis (B. subtilis; [3]): 1.88-2.5; MIC A. brasiliensis (A. brasiliensis; [3]): 1.25-5; MIC P. faveolarum (P. faveolarum; [3]): 1.25-5; MIC A. pullulans (A. pullulans; [3]): 2.5-5
O=c1[nH]sc2ccccc12 [BIT, benzisothiazolinone]	–	–	–	–	–	–	–	–	–	–	–	–	–	4.06-8	8.13	32.50	1.02-4	16-32.5	4.06-16	4.06-8	–
O=C(OOC(=O)c1ccccc1)c1ccccc1 [Benzoyl Peroxide, benzoyl peroxide]	–	–	–	–	–	–	–	–	–	–	–	–	–	–	–	–	–	–	–	–	MIC (P. acnes; Benzoyl Peroxide without chelator or with chelator, Molar Eq. HBED 10×, 8-HQ 5×, DTPA 10×, Desferrioxamine 1×, read-out: MIC values against P. acnes, Benzoyl Peroxide): 200 µg/mL (≈ 826 µM)
O=C(O)CN(CCN(CC(=O)O)CC(=O)O)CCN(CC(=O)O)CC(=O)O [DTPA, diethylenetriaminepentaacetic acid]	–	–	–	–	–	–	–	–	–	–	1.25	0.94	20.00	0.51	0.51	8.13	2.03	16.25	<0.06	2.03	MIC values against P. acnes, Benzoyl Peroxide (P. acnes; Benzoyl Peroxide without chelator or with chelator, Molar Eq. HBED 10×, 8-HQ 5×, DTPA 10×, Desferrioxamine 1×): 6.25 ppm; MIC values against P. acnes, Salicylic Acid (P. acnes; Salicylic Acid without chelator or with chelator, Molar Eq. HBED 10×, 8-HQ 5×, DTPA 10×, Desferrioxamine 1×): 3.13 ppm; MIC B. subtilis (B. subtilis; [3]): 2.50; MIC A. brasiliensis (A. brasiliensis; [3]): 1.25; MIC P. faveolarum (P. faveolarum; [3]): 0.16; MIC A. pullulans (A. pullulans; [3]): 0.63
CC(=O)N(O)CCCCCNC(=O)CCC(=O)N(O)CCCCCNC(=O)CCC(=O)N(O)CCCCCN [Desferrioxamine, desferrioxamine]	–	–	–	–	–	–	–	–	–	–	–	–	–	–	–	–	–	–	–	–	MIC (P. acnes; read-out: MIC values against P. acnes, Benzoyl Peroxide): 25 µg/mL (≈ 44.6 µM); MIC (P. acnes; read-out: MIC values against P. acnes, Salicylic Acid): 25 µg/mL (≈ 44.6 µM)
O=C(O)CN(CCN(CC(=O)O)Cc1ccccc1O)Cc1ccccc1O.[Zn] [HBED-Zn]	0.98	0.49	1.46	3.91	15.63	3.91	1.95	7.81	0.24	0.98	–	–	–	–	–	–	–	–	–	–	MIC E. Coli (E. coli): 3.91; MIC T. mentagrophytes (T. mentagrophytes; [2]): 1.46; MIC S. epidermidis (S. epidermidis; [2]): 3.91; MIC P. aeruginosa (P. aeruginosa; [2]): 15.63; MIC M. furfur (M. furfur; [2]): 0.98
CCCC1COC(Cn2cncn2)(c2ccc(Cl)cc2Cl)O1 (stereo not shown) [Propiconazole, propiconazole]	–	–	–	–	–	–	–	–	–	–	–	–	–	–	–	–	–	–	–	–	MIC C. pyrenoidsa (C. pyrenoidosa; [5]): 20.63-82.5; MIC R. subcapitata (R. subcapitata; [5]): 20.63-41.25; MIC P. aeruginosa (P. aeruginosa; [5]): 165.00; MIC C. albicans (C. albicans; [5]): 41.25-100.00; MIC E. hirae (E. hirae; [5]): 165.00; MIC S. aureus (S. aureus; [5]): 82.5-165.00; MIC P. faveolarum (P. faveolarum; [5]): 20.63-41.25
O=C(O)c1ccccc1O [Salicylic Acid, salicylic acid]	–	–	–	–	–	–	–	–	–	–	–	–	–	–	–	–	–	–	–	–	MIC (P. acnes; Salicylic Acid without chelator or with chelator, Molar Eq. HBED 10×, 8-HQ 5×, DTPA 10×, Desferrioxamine 1×, read-out: MIC values against P. acnes, Salicylic Acid): 100 µg/mL (≈ 724 µM)
O=C(CC(=O)C(F)(F)F)c1cccs1.[Zn] [Then-Zn, thenoyl trifluoro acetone zinc salt]	–	–	–	–	–	–	–	–	–	–	–	–	–	2.03	1.02	32.50	1.52	32.50	0.13	4.06	MIC C. pyrenoidsa (C. pyrenoidosa; [6]): 0.38; MIC R. subcapitata (R. subcapitata; [6]): 1.02; MIC P. aeruginosa (P. aeruginosa; [6]): 65.0; MIC C. albicans (C. albicans; [6]): 2.03; MIC E. hirae (E. hirae; [6]): 8.13; MIC B. subtilis (B. subtilis; [6]): 4.06; MIC S. aureus (S. aureus; [6]): 13.25; MIC P. faveolarum (P. faveolarum; [6]): 0.51
O=c1cccccc1[O-].O=c1cccccc1[O-].[Zn+2] [Tropolone-Zn, zinc(tropolone)2]	0.98	0.49	0.18	0.18	15.63	0.73	0.24	1.95	0.05	0.73	1.25	0.94	20.00	0.76	1.02	8.13	0.13	1.02	0.19	0.24	MIC C. pyrenoidsa (C. pyrenoidosa; [6]): 0.51; MIC C. pyrenoidsa (C. pyrenoidosa; [5]): 2.58; MIC R. subcapitata (R. subcapitata; [6]): 0.51; MIC R. subcapitata (R. subcapitata; [5]): 1.29; MIC P. aeruginosa (P. aeruginosa; [6]): 32.5; MIC P. aeruginosa (P. aeruginosa; [5]): 41.25; MIC C. albicans (C. albicans; [6]): 1.02; MIC C. albicans (C. albicans; [5]): 0.97; MIC E. hirae (E. hirae; [6]): 0.25; MIC E. hirae (E. hirae; [5]): 0.32; MIC B. subtilis (B. subtilis; [3]): 0.31; MIC B. subtilis (B. subtilis; [6]): 0.51; MIC B. subtilis (B. subtilis; [5]): 0.64; MIC S. aureus (S. aureus; [6]): 0.51; MIC S. aureus (S. aureus; [5]): 0.64; MIC A. brasiliensis (A. brasiliensis; [3]): 0.94; MIC P. faveolarum (P. faveolarum; [3]): 0.23; MIC P. faveolarum (P. faveolarum; [6]): 0.38; MIC P. faveolarum (P. faveolarum; [5]): 0.32; MIC A. pullulans (A. pullulans; [3]): 0.31
glucoheptanoic acid zinc salt [Gluco-heptanoate-Zn]	–	–	–	–	–	–	–	–	–	–	1.25	1.88	80.00	–	–	–	–	–	–	–	MIC C. pyrenoidsa (C. pyrenoidosa; [5]): 15.47; MIC R. subcapitata (R. subcapitata; [5]): 0.97; MIC P. aeruginosa (P. aeruginosa; [5]): 165.00; MIC C. albicans (C. albicans; [5]): 82.50; MIC E. hirae (E. hirae; [5]): 20.63; MIC B. subtilis (B. subtilis; [3]): 1.25; MIC B. subtilis (B. subtilis; [5]): 20.63; MIC S. aureus (S. aureus; [5]): 41.25; MIC A. brasiliensis (A. brasiliensis; [3]): 2.50; MIC P. faveolarum (P. faveolarum; [3]): 0.16; MIC P. faveolarum (P. faveolarum; [5]): 1.93; MIC A. pullulans (A. pullulans; [3]): 5.00
zinc dihydroxyacetate [DHA-Zn]	0.98	0.98	0.49	3.91	31.25	3.91	0.98	7.81	0.05	1.95	–	–	–	2.03	2.03	32.50	1.52	6.09	0.25	2.03	MIC C. pyrenoidsa (C. pyrenoidosa; [5]): 10.31; MIC R. subcapitata (R. subcapitata; [5]): 1.29; MIC P. aeruginosa (P. aeruginosa; [5]): 165.00; MIC C. albicans (C. albicans; [5]): 0.64; MIC E. hirae (E. hirae; [5]): 20.63; MIC B. subtilis (B. subtilis; [5]): 30.94; MIC S. aureus (S. aureus; [5]): 41.25; MIC P. faveolarum (P. faveolarum; [5]): 1.93
